Measurements: ChEMBL document CHEMBL1127909, “Tyrosinase inhibitory flavonoids fromheterotheca inuloides and their structural functions” (Bioorg Med Chem Lett, 1994)
Converted amounts (≈) assume the structure as drawn.

Experiments:
[1] = tested on: Tyrosinase (Agaricus bisporus); assay: Dose required for inhibitory activity against oxidation of L-DOPA by mushroom tyrosinase
[2] = biological target: T1, Tyrosinase (Homo sapiens) (UniProt P14679); assay: Percent inhibition of mushroom tyrosinase at concentration of 45 ug/ml
T1 sequence (whole entry): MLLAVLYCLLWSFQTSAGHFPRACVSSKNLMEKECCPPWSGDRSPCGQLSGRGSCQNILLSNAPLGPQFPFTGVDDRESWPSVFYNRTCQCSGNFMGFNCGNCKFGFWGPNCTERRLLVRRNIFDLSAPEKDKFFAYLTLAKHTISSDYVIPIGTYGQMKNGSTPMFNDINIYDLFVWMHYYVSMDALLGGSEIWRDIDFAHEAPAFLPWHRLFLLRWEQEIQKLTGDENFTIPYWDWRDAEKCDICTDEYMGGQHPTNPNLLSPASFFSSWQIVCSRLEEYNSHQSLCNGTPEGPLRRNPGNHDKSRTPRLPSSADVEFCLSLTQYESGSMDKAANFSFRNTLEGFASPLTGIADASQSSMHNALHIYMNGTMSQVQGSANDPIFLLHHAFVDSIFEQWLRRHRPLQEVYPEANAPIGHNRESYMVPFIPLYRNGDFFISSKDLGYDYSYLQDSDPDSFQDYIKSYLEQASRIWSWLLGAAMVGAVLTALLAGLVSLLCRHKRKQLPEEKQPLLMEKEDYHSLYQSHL

[3] = biological target: T1, Tyrosinase (Homo sapiens); assay: Percent inhibition of mushroom tyrosinase at concentration of 18 ug/ml

Row | SMILES | ID50 [1] [µg/mL] | inhibition [2] [%] | inhibition [3] [%]
1 | COc1cc(-c2oc3cc(O[C@H]4O[C@@H](COC(=O)/C=C/c5ccc(O)cc5)[C@H](O)[C@@H](O)[C@@H]4O)cc(O)c3c(=O)c2O)ccc1O | 0.44 (≈ 0.705 µM) |  | 
2 | O=c1c(O)c(-c2ccc(O)c(O)c2)oc2cc(O)cc(O)c12 |  | 80 | 40
3 | O=C(/C=C/c1ccc(O)cc1)OC[C@@H]1O[C@H](Oc2cc(O)c3c(=O)c(O)c(-c4ccc(O)cc4)oc3c2)[C@@H](O)[C@H](O)[C@H]1O | 0.39 (≈ 0.656 µM) |  | 
